Data published in patent US20080262097A1, “Formulations” (priority 2005, published 2008).
Converted amounts (≈) assume the structure as drawn. Where two headings read alike, the source gives them in different places.

Assays:
Test in all cases: MIC assay
P. acnes PRP-023 = format: cell-based, Propionibacterium acnes; conditions: Cutibacterium acnes, PRP023; P. acnes PRP-023 (resistance MLSK)
Description: (§1) The Propionibacterium spp organisms were cultured and maintained on Wilkins-Chalgren Anaerobe Medium (agar and broth) at pH 6.0; cultures were incubated anaerobically at 37° C. for 72 hours.
(§2) This is a standard international method for quantitatively assessing the antimicrobial activity of a compound in a liquid medium. The method used a 96-well microtitre plate, capable of holding about 200 μl of liquid per well. […] The culture media were as described above for the relevant test organisms.
(§3) The wells were inoculated with a liquid suspension of freshly grown micro-organism and incubated under the conditions described above. After incubation, the microtitre plate was examined visually (with the aid of a light box) for cell pellets in and/or opaque wells, which would indicate microbial growth. The MIC value was recorded as the lowest concentration of test compound required to inhibit microbial growth, ie, the lowest concentration for which the liquid in the well remained clear.
(§4) The assays were conducted in duplicate and included both negative (culture medium only) and positive (culture medium, diluting solvent and inoculum) controls.

P. acnes PRP-101 = format: cell-based, Propionibacterium acnes; conditions: Cutibacterium acnes, PRP101; P. acnes PRP-101 (resistance Tet/MLS)
Description: as §1, §2, §3, §4

P. acnes PRP-004 = format: cell-based, Propionibacterium acnes; conditions: Cutibacterium acnes, PRP004; P. acnes PRP-004 (resistance Tet)
Description: as §1, §2, §3, §4

P. acnes PRP-007 = format: cell-based, Propionibacterium acnes; conditions: Cutibacterium acnes, PRP007; P. acnes PRP-007 (resistance Clin)
Description: as §1, §2, §3, §4

P. acnes PRP-002 = format: cell-based, Propionibacterium acnes; conditions: Cutibacterium acnes, PRP002; P. acnes PRP-002 (resistance Tet/MLS)
Description: as §1, §2, §3, §4

P. acnes PRP-059 = format: cell-based, Propionibacterium acnes; conditions: Cutibacterium acnes, PRP059; P. acnes PRP-059 (resistance MLS)
Description: as §1, §2, §3, §4

P. acnes PRP-046 = format: cell-based, Propionibacterium acnes; conditions: Cutibacterium acnes, PRP046; P. acnes PRP-046 (resistance None)
Description: as §1, §2, §3, §4

P. acnes PRP-026 = format: cell-based, Propionibacterium acnes; conditions: Cutibacterium acnes, PRP026; P. acnes PRP-026 (resistance MLS)
Description: as §1, §2, §3, §4

P. acnes PRP-003 = format: cell-based, Propionibacterium acnes; conditions: Cutibacterium acnes, PRP003; P. acnes PRP-003 (resistance Tet)
Description: as §1, §2, §3, §4

P. acnes PRP-102 = format: cell-based, Propionibacterium acnes; conditions: Cutibacterium acnes, PRP102; P. acnes PRP-102 (resistance Tet/MLS)
Description: as §1, §2, §3, §4

P. acnes PRP-008 = format: cell-based, Propionibacterium acnes; conditions: Cutibacterium acnes, PRP008; P. acnes PRP-008 (resistance Clin)
Description: as §1, §2, §3, §4

P. acnes PRP-068 = format: cell-based, Propionibacterium acnes; conditions: Cutibacterium acnes, PRP068; P. acnes PRP-068 (resistance Ery)
Description: as §1, §2, §3, §4

P. acnes PRP-017 = format: cell-based, Propionibacterium acnes; conditions: Cutibacterium acnes, PRP017; P. acnes PRP-017 (resistance MLS)
Description: as §1, §2, §3, §4

P. granulosum PRP-044 = format: cell-based; conditions: P. granulosum PRP-044 (resistance MLS)
Description: as §1, §2, §3, §4

P. granulosum PRP-005 = format: cell-based; conditions: P. granulosum PRP-005 (resistance MLSK)
Description: as §1, §2, §3, §4

P. granulosum PRP-055 = format: cell-based; conditions: P. granulosum PRP-055 (resistance None)
Description: as §1, §2, §3, §4

P. avidum ATCC 25577 = format: cell-based; conditions: Cutibacterium avidum, ATCC25577; P. avidum ATCC 25577 (resistance None)
Description: as §1, §2, §3, §4

P. granulosum PRP-043 = format: cell-based; conditions: P. granulosum PRP-043 (resistance MLS)
Description: as §1, §2, §3, §4

P. granulosum NCTC 11865 = format: cell-based; conditions: P. granulosum NCTC 11865 (resistance None)
Description: as §1, §2, §3, §4

[1] = system: Staphylococcus warneri ATCC 27836; format: cell-based; conditions: ATCC27836
Description: (§5) The staphylococci and enterococci were cultured and maintained on Mueller-Hinton Medium (agar and broth) at pH 7.2; they were incubated aerobically at 37° C. for 24 hours.
as §2, §3, §4

[2] = system: Staphylococcus xylosus ATCC 29971; format: cell-based; conditions: ATCC29971
Description: as §5, §2, §3, §4

[3] = system: Staphylococcus aureus ATCC 12600; format: cell-based; conditions: ATCC12600
Description: as §5, §2, §3, §4

S. aureus ATCC 12601 = format: cell-based; conditions: Staphylococcus aureus, ATCC12601
Description: as §5, §2, §3, §4

[4] = system: S. saprophyticus NCTC 7292; format: cell-based; conditions: Staphylococcus saprophyticus, NCTC7292
Description: as §5, §2, §3, §4

S. aureus CPHL EMRSA 15 = format: cell-based; conditions: Staphylococcus aureus
Description: (§6) Other staphylococcal strains were also tested, as described in Example 5 below. These included certain antibiotic resistant staphylococci, such as the methicillin resistant S. aureus (MRSA) strains EMRSA-15 and EMRSA-16, both available from the Central Public Health Laboratory (CPHL), Colindale, UK. These strains are resistant not only to all beta-lactams but also to a number of other antibiotics in clinical use, making them a serious threat to human health. They are also responsible for the majority (>95%) of hospital-acquired MRSA infections in the UK.
as §5, §2, §3, §4

S. aureus CPHL EMRSA 16 = format: cell-based; conditions: Staphylococcus aureus
Description: as §6, §5, §2, §3, §4

Structure (SMILES)	MIC (P. acnes PRP-023)	MIC (P. acnes PRP-101)	MIC (P. acnes PRP-004)	MIC (P. acnes PRP-007)	MIC (P. acnes PRP-002)	MIC (P. acnes PRP-059)	MIC (P. acnes PRP-046)	MIC (P. acnes PRP-026)	MIC (P. acnes PRP-003)	MIC (P. acnes PRP-102)	MIC (P. acnes PRP-008)	MIC (P. acnes PRP-068)	MIC (P. acnes PRP-017)	MIC (P. granulosum PRP-044)	MIC (P. granulosum PRP-005)	MIC (P. granulosum PRP-055)	MIC (P. avidum ATCC 25577)	MIC (P. granulosum PRP-043)	MIC (P. granulosum NCTC 11865)	MIC [3]	also measured
CC(C)(C)c1cc(O)ccc1O [TBHQ, t-butyl hydroquinone]	3.9 µg/mL (≈ 23.5 µM)	3.9 µg/mL (≈ 23.5 µM)	1.95 µg/mL (≈ 11.7 µM)	3.9 µg/mL (≈ 23.5 µM)	3.9 µg/mL (≈ 23.5 µM)	3.9 µg/mL (≈ 23.5 µM)	1.95 µg/mL (≈ 11.7 µM)	3.9 µg/mL (≈ 23.5 µM)	7.8 µg/mL (≈ 46.9 µM)	7.8 µg/mL (≈ 46.9 µM)	3.9 µg/mL (≈ 23.5 µM)	3.9 µg/mL (≈ 23.5 µM)	3.9 µg/mL (≈ 23.5 µM)	15.6 µg/mL (≈ 93.9 µM)	62.5 µg/mL (≈ 376 µM)	3.9 µg/mL (≈ 23.5 µM)	3.9 µg/mL (≈ 23.5 µM)	15.6 µg/mL (≈ 93.9 µM)	3.9 µg/mL (≈ 23.5 µM)	3.9 µg/mL (≈ 23.5 µM)	MIC ([1]; Staphylococcus warneri): 3.9 µg/mL (≈ 23.5 µM); MIC ([2]; Staphylococcus xylosus): 7.8 µg/mL (≈ 46.9 µM); MIC (S. aureus ATCC 12601): 7.8 µg/mL (≈ 46.9 µM); MIC [4]: 3.9 µg/mL (≈ 23.5 µM); MIC (S. aureus CPHL EMRSA 15): 3.9 µg/mL (≈ 23.5 µM); MIC (S. aureus CPHL EMRSA 16): 3.9 µg/mL (≈ 23.5 µM)
O=C(OOC(=O)c1ccccc1)c1ccccc1 [benzoyl peroxide]	31.2 µg/mL (≈ 129 µM)	15.6 µg/mL (≈ 64.4 µM)	7.8 µg/mL (≈ 32.2 µM)	31.2 µg/mL (≈ 129 µM)	15.6 µg/mL (≈ 64.4 µM)	62.5 µg/mL (≈ 258 µM)	31.2 µg/mL (≈ 129 µM)	15.6 µg/mL (≈ 64.4 µM)	31.2 µg/mL (≈ 129 µM)	62.5 µg/mL (≈ 258 µM)	31.2 µg/mL (≈ 129 µM)	62.5 µg/mL (≈ 258 µM)	31.2 µg/mL (≈ 129 µM)	31.2 µg/mL (≈ 129 µM)	15.6 µg/mL (≈ 64.4 µM)	15.6 µg/mL (≈ 64.4 µM)	31.2 µg/mL (≈ 129 µM)	62.5 µg/mL (≈ 258 µM)	15.6 µg/mL (≈ 64.4 µM)	125 µg/mL (≈ 516 µM)	MIC ([1]; Staphylococcus warneri ATCC 27836, read-out: MIC): > 250 µg/mL; MIC ([2]; Staphylococcus xylosus ATCC 29971, read-out: MIC): 250 µg/mL (≈ 1030 µM); MIC (S. aureus ATCC 12601; S. aureus ATCC 12601, read-out: MIC): 250 µg/mL (≈ 1030 µM); MIC ([4]; S. saprophyticus NCTC 7292, read-out: MIC): 250 µg/mL (≈ 1030 µM); MIC (S. aureus CPHL EMRSA 15): 125 µg/mL (≈ 516 µM); MIC (S. aureus CPHL EMRSA 16): 125 µg/mL (≈ 516 µM)
